# Measurements as given in patent US6506784B1, “Use of 1,3-substituted pyrazol-5-yl sulfonates as pesticides” (3-Dimensional Pharmaceuticals, Inc., priority 1999, dated 2003).
# Molecular target: Mouse Brain GABA Receptors
# Assay: In vitro assay of ability to bind mouse brain GABA receptors (3H-EBOB displacement, mouse brain membranes)
# Details: inhibition of 3H-EBOB binding to mouse brain membranes; NI = non-inhibitor
# Experimental: Mouse brains were obtained from carbon dioxide-asphyxiated Swiss-Webster mice, washed with phosphate-buffered saline, and used either fresh or after storage at −80° C. for up to 10 months. Unless specified, all preparation steps were performed at 0-4° C. For each preparation, 20 brains were suspended in about 40 mL of 0.32 M sucrose and homogenized for about 2 minutes, using a Tissumizer™ homogenizer equipped with a SDT-100EN probe (available from Tekmar-Dohrmann, Cincinnati, Ohio) running at 50% of its maximum speed. The extract was centrifuged for about 5 min at about 1000×g to pellet intact brain tissue. The supernatant was retained and the pellet washed with an additional 40 mL of 0.32 M sucrose and centrifuged at 1000×g for about 5 minutes. The 1000×g supernatants were combined and centrifuged at about 10,000×g for about 20 min to pellet membranes. The 10,000×g supernatant was discarded and the pellet was resuspended in about 20 mL of water containing 1 mM EDTA. The sample was dialyzed two times for about 3 hours each against about 3 L of water. The sample was then centrifuged at about 25,000×g for about 30 min to pellet the membranes. After centrifugation, the supernatant was discarded and the pellet recovered. The protein concentration of the pellet was determined by the Bio-Rad Protein Assay (available from Bio-Rad Laboratories, Hercules, Calif.) using bovine serum albumin as a standard. The membranes were aliquoted and stored at −80° C. for up to 6 months before use.
# Mouse brain membranes were prepared as described above from dissected mouse brains. Test compounds were dissolved in dimethylsulfoxide (DMSO) at concentrations ranging from about 2 nM to about 100 mM. About 1 μL of a dissolved test compound was dispensed into a well of a 96-well polystyrene plate. About 100 μL of ice cold assay buffer (10 mM phosphate, 300 mM NaCl, pH 7.5) containing 5.2 nM 4′-Ethynyl-4-n-[2,3-^3H2]propylbicycloorthobenzoate (^3H-EBOB, 38 Ci/mmol, available from NEN Life Science Products, Boston, Mass.) was added to the well, followed by about 100 μL of ice cold assay buffer containing about 0.25-0.5 mg/ml mouse brain membranes. Control wells were prepared the same way except that the mouse brain membranes were omitted from the “negative” wells, and the test compounds were omitted from the “positive” wells. The samples were incubated for about 45 min at about 24° C. and then filtered on a 0.1% (w/v) polyethylenimine-soaked glass fiber Filtermat A (available from EG&G Wallac Inc., Gaithersburg, Md.) followed by four 100 mL rinses of cold assay buffer using a Harvester 96® cell harvester (available from Tomtec, Orange, Conn.). The filtermat was air dried and radioactivity bound to the filtermat was detected with either a 1450 MicroBeta® Trilux scintillation counter (available from EG&G Wallac Inc.) or a Topcount NXT™ scintillation counter (available from Packard Instrument Co., Meriden, Conn.) using standard methods.
# Specific binding was considered to be the difference between total ^3H bound to the mouse brain membranes in the absence of any inhibitors and nonspecific ^3H bound to the mouse brain membranes upon the addition of 5 μM unlabeled EBOB. The average radioactivity contained in the “negative” wells was subtracted from each of the assay wells. […] This value was calculated by plotting the data on a log-linear plot and either dropping a line to the x-axis perpendicular to a line drawn to the y-axis at approximately 50% inhibition of ^3H-EBOB binding, or by fitting the data to the formula I=XY/(X+Z), in which I is the percent inhibition of ^3H-EBOB binding, X is the inhibitor concentration, Y is the maximum percent inhibition of ^3H-EBOB binding observed, and Z is the calculated IC50.
row,IC50 [µM],Structure (SMILES)
1,8.4,Cn1nc(C(F)(F)F)cc1OS(=O)(=O)c1cc(Cl)c(Cl)cc1Cl [compound 1]
2,9,Cn1nc(C(F)(F)F)cc1OS(=O)(=O)c1ccc(Cl)c(Cl)c1 [compound 2]
3,2,Cn1nc(C(F)(F)F)cc1OS(=O)(=O)c1cc(Cl)ccc1Cl [compound 3]
4,0.5,Cn1nc(C(F)(F)F)cc1OS(=O)(=O)c1cccc(Cl)c1 [compound 4]
5,14,"Cn1nc(C(F)(F)F)cc1OS(=O)(=O)c1ccc(C(F)(F)F)cc1Cl [compound 5, 1-methyl-3-(trifluoromethyl)pyrazol-5-yl 2-chloro-4-(trifluoromethyl)benzenesulfonate]"
6,12.5,Cn1nc(C(F)(F)F)cc1OS(=O)(=O)c1ccc(Br)c(Br)c1 [compound 6]
7,11,Cc1cc(S(=O)(=O)Oc2cc(C(F)(F)F)nn2C)ccc1Cl [compound 7]
8,0.16,Cn1nc(C(F)(F)F)cc1OS(=O)(=O)c1cccc(F)c1 [compound 8]
9,6,Cn1nc(C(F)(F)F)cc1OS(=O)(=O)c1c(F)cccc1F [compound 9]
10,1,Cn1nc(C(F)(F)F)cc1OS(=O)(=O)c1ccc(F)c(F)c1 [compound 10]
11,3.6,Cc1cc(F)ccc1S(=O)(=O)Oc1cc(C(F)(F)F)nn1C [compound 11]
12,4.9,"Cn1nc(C(F)(F)F)cc1OS(=O)(=O)c1ccc(Cl)cc1Cl [compound 12, 1-methyl-3-(trifluoromethyl)pyrazol-5-yl 2,4-dichlorobenzenesulfonate]"
13,3,Cn1nc(C(F)(F)F)cc1OS(=O)(=O)c1ccc2ccccc2c1 [compound 13]
14,12,O=S(=O)(Oc1cc(C(F)(F)F)nn1-c1ccccc1)c1ccc(F)c(Cl)c1 [compound 14]
15,12,Cc1c(Cl)cccc1S(=O)(=O)Oc1cc(C(F)(F)F)nn1C [compound 16]
16,5.4,Cn1nc(C(C)(C)C)cc1OS(=O)(=O)c1ccc(Cl)cc1Cl [compound 17]
17,1,Cc1nn(-c2ccccc2)c(OS(=O)(=O)c2ccc(F)cc2Cl)c1Cl [compound 18]
18,1.3,Cn1nc(C(C)(C)C)cc1OS(=O)(=O)c1ccc(F)cc1Cl [compound 19]
19,3.3,"Cn1nc(C(F)(F)F)cc1OS(=O)(=O)c1ccc(F)cc1Cl [compound 20, 1-methyl-3-(trifluoromethyl)pyrazol-5-yl 2-chloro-4-fluorobenzenesulfonate]"
